From PubChem BioAssay AID1963833 (Molecular Pharmacology Branch, DTP, NCI, 2024)
pIC50: −log10 of the molar value. Values joined by “and” are separate entries in the source; they are usually repeats but may differ in a detail not shown here. Equal values may be shown once.

Test system: 883617-216-R-J1-PDC complex spheroid viability
Assay: Anticancer human tumor 883617-216-R-J1-PDC patient-derived bladder carcinoma cell line growth inhibition [POLQ]
Details: for viability, T/C: stronger effect = lower value
Method: Multicellular complex tumor spheroid response to Polymerase (POL) inhibitors (novobiocin, ART-558, RP6685) in combination with a variety of drugs and investigational agents in selected tumor cell lines
The POL inhibitors (novobiocin, ART-558, and RP6685) were evaluated both individually and in combination with standard of care and investigational anticancer small molecules within a complex spheroid model of solid tumors. . Complex spheroids include a stromal component modeled by human endothelial cells (HUVEC) and fibroblasts modeled by human mesenchymal stem cells (MSCs). The concentration ranges selected for each drug and investigational agent were based upon clinically achievable concentrations if the clinical Cmax of the agent was known.
Compounds. The drugs and investigational agents: novobiocin (NSC847541), ART-558 (NSC835418), RP-6685 (NSC848927), peposertib (NSC802822), ceralasertib (NSC780249), elimusertib (NSC800525), camonsertib (NSC841442), AZD-1390 (NSC803789), olaparib (NSC753686), talazoparib (NSC767125), rucaparib (NSC756644), sotorasib (NSC818433), MRTX-1133 (NSC836407), SN-38 (NSC673596), topotecan (NSC609699), epotoside (NSC141540), doxorubicin (NSC123127), gemcitabine (NSC613327), 5-fluorouracil (NSC19893), paclitaxel (NSC125973), vemurafenib (NSC761431), MSA-2 (NSC828583), SN-011 (NSC837082), adavosertib (NSC754352), prexasertib (NSC758257), carboplatin (NSC241240) and oxaliplatin (NSC266046), were obtained from the National Cancer Institute (NCI) Developmental Therapeutics Program Chemical Repository (21). The FDA-approved anticancer drug set is available from the Developmental Therapeutics Program at https://dtp.cancer.gov/organization/dscb/obtaining/. […] The stock solutions were prepared in dimethyl sulfoxide (DMSO, Sigma-Aldrich, St. Louis, MO, cat. D2650), except for the platinum compounds which were prepared in saline (Quality Biological, Gaithersburg, MD, cat. 114-055-101), at 800-fold the tested concentration and stored at -70 degrees C prior to their use. All drugs and investigational agents were tested over a range starting from a high concentration at or near the clinical Cmax and decreasing in half-log increments. If the clinical Cmax for an agent had not been determined, the highest concentration tested was 10 microM, except for SN-38, which was tested at a high concentration of 1 microM.
Cell Culture. All cells were maintained in an incubator at 37 degrees C and 5% CO2 with 95% humidity. The PDC lines were cultured according to standard operating procedures established by the NCI PDMR (https://pdmr.cancer.gov). Table 3 of the manuscript, lists the cell lines along with the number of the three cell types plated to form the mct-spheroids and media for tumor cell growth. After thawing, all PDC lines, except 997537-175-T-J1-PDC and 415267-285-R-J2-PDC, were cultured in Matrigel-coated flasks prepared with a working solution of 1X Ham's F-12 nutrient mix, without supplementation (Thermo Fisher Scientific, cat. 11765054), 100 U/mL penicillin-streptomycin (Thermo Fisher Scientific, cat. 15140122), and 2.5% Matrigel (Corning Inc., Corning, NY, cat. 354248) for the first three passages. The two PDC lines 997537-175-T-J1-PDC and 415267-285-R-J2-PDC were cultured on uncoated flasks. The 857933-349-R-J2-PDC line was cultured in 6C/Colon 1B media containing advanced DMEM/F-12 (Thermo Fisher Scientific, cat. 12634028), 10 mM HEPES (Thermo Fisher Scientific, cat. 15630080), 1X GlutaMAX supplement (Thermo Fisher Scientific, cat. 35050061), 0.1 mg/mL primocin (InvivoGen, San Diego, CA, cat. ant-pm-2), 10% defined fetal bovine serum, heat inactivated (HyClone Laboratories Inc., Logan, UT, cat. SH30070.03HI), 50% L-WRN conditioned media (ATCC, cat. CRL-3276), 1.25 mM N-Acetyl-L-cysteine (Sigma-Aldrich, cat. A9165), 10 mM nicotinamide (Sigma-Aldrich, cat. N0636), 1X B-27 supplement (Thermo Fisher Scientific, cat. 17504044), 1X N-2 supplement (Thermo Fisher Scientific, cat. […]

[1] = curve of first compound, second compound 0.0316 µM
[2] = curve of first compound, second compound 0.1 µM
[3] = curve of first compound, second compound 0.316 µM
[4] = curve of first compound, second compound 1 µM
[5] = curve of first compound, second compound 3.16 µM
[6] = curve of first compound, second compound 10 µM
[7] = second compound 0.0316 µM, first compound 0.0316 µM
[8] = second compound 0.0316 µM, first compound 0.1 µM
[9] = second compound 0.0316 µM, first compound 0.316 µM
[10] = second compound 0.0316 µM, first compound 1 µM
[11] = second compound 0.1 µM, first compound 0.0316 µM
[12] = second compound 0.1 µM, first compound 0.1 µM
[13] = second compound 0.1 µM, first compound 0.316 µM
[14] = second compound 0.1 µM, first compound 1 µM
[15] = second compound 0.316 µM, first compound 0.0316 µM
[16] = second compound 0.316 µM, first compound 0.1 µM
[17] = second compound 0.316 µM, first compound 0.316 µM
[18] = second compound 0.316 µM, first compound 1 µM
[19] = second compound 1 µM, first compound 0.0316 µM
[20] = second compound 1 µM, first compound 0.1 µM
[21] = second compound 1 µM, first compound 0.316 µM
[22] = second compound 1 µM, first compound 1 µM
[23] = second compound 3.16 µM, first compound 0.0316 µM
[24] = second compound 3.16 µM, first compound 0.1 µM
[25] = second compound 3.16 µM, first compound 0.316 µM
[26] = second compound 3.16 µM, first compound 1 µM
[27] = second compound 10 µM, first compound 0.0316 µM
[28] = second compound 10 µM, first compound 0.1 µM
[29] = second compound 10 µM, first compound 0.316 µM
[30] = second compound 10 µM, first compound 1 µM
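Further: spheroids exposed to compounds for seven days before readout.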
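Wherever viability, T/C is given: 100% = DMSO vehicle control viability.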

`CCc1c2c(nc3ccc(O)cc13)-c1cc3c(c(=O)n1C2)COC(=O)[C@]3(O)CC` + Cc1cccc(N(C)C(=O)C2C(O)CCN2c2nc(C)cc(C(F)(F)F)c2C#N)c1 was tested, and the pIC50 [1] was 7.00, the pIC50 [2] was 7.16 and the pIC50 [3] was 7.07. It also gave a pIC50 [4] of 7.20, a pIC50 [5] of 7.22 and a pIC50 [6] of 6.90. It also gave a viability, T/C (second compound 0.0316 µM, first compound 0.00316 µM) of 59.4%, a viability, T/C (second compound 0.0316 µM, first compound 0.01 µM) of 58.6% and a viability, T/C [7] of 52.8%. It also gave a viability, T/C [8] of 52%, a viability, T/C [9] of 34.2% and a viability, T/C [10] of 21.2%. The viability, T/C (second compound 0.1 µM, first compound 0.00316 µM) was 71.4%, the viability, T/C (second compound 0.1 µM, first compound 0.01 µM) was 60.8% and the viability, T/C [11] was 57.9%. For the same compound, the viability, T/C [12] was 46.9%, the viability, T/C [13] was 37.7% and the viability, T/C [14] was 25%. It also gave a viability, T/C (second compound 0.316 µM, first compound 0.00316 µM) of 60.1%, a viability, T/C (second compound 0.316 µM, first compound 0.01 µM) of 66.2% and a viability, T/C [15] of 55%. It also gave a viability, T/C [16] of 49.6%, a viability, T/C [17] of 32.6% and a viability, T/C [18] of 17.6%. For the same compound, the viability, T/C (second compound 1 µM, first compound 0.00316 µM) was 65.1%, the viability, T/C (second compound 1 µM, first compound 0.01 µM) was 61.7% and the viability, T/C [19] was 60.8%. For the same compound, the viability, T/C [20] was 41.3%, the viability, T/C [21] was 33.6% and the viability, T/C [22] was 20.5%. It also gave a viability, T/C (second compound 3.16 µM, first compound 0.00316 µM) of 71.6%, a viability, T/C (second compound 3.16 µM, first compound 0.01 µM) of 59.7% and a viability, T/C [23] of 54.8%. The viability, T/C [24] was 45.3%, the viability, T/C [25] was 40.6% and the viability, T/C [26] was 22.4%. The viability, T/C (second compound 10 µM, first compound 0.00316 µM) was 79.8%, the viability, T/C (second compound 10 µM, first compound 0.01 µM) was 70.5% and the viability, T/C [27] was 62.1%. It also gave a viability, T/C [28] of 49.1%, a viability, T/C [29] of 44.9% and a viability, T/C [30] of 13.5%.
`CC(=O)O[C@H]1C(=O)[C@@]2(C)[C@H]([C@H](OC(=O)c3ccccc3)[C@]3(O)C[C@H](OC(=O)[C@H](O)[C@@H](NC(=O)c4ccccc4)c4ccccc4)C(C)=C1C3(C)C)[C@]1(OC(C)=O)CO[C@@H]1C[C@@H]2O` was tested, and the viability, T/C (compound 0.00949 µM) was 44.9% and 57% and 43.1%, the viability, T/C (compound 0.03 µM) was 32.5% and 35.8% and 26.7% and the viability, T/C (compound 0.0949 µM) was 22.9% and 26.7% and 15.8%. For the same compound, the viability, T/C (compound 0.3 µM) was 30.6% and 21.1% and 24.6%, the viability, T/C (compound 0.949 µM) was 28.4% and 23.5% and 25.1% and the viability, T/C (compound 3 µM) was 26.5% and 19.3% (2×). The pIC50 (curve of compound) was > 8.02 and 7.86.
With `C=CCn1c(=O)c2cnc(Nc3ccc(N4CCN(C)CC4)cc3)nc2n1-c1cccc(C(C)(C)O)n1` the viability, T/C (compound 0.00316 µM) was 97.5% and 107% and 98.8%, the viability, T/C (compound 0.01 µM) was 100% and 96.8% and 90.3% and the viability, T/C (compound 0.0316 µM) was 100% and 108% and 112%. For the same compound, the viability, T/C (compound 0.1 µM) was 107% and 87.8% and 93.7%, the viability, T/C (compound 0.316 µM) was 85.4% and 72.3% and 92.5% and the viability, T/C (compound 1 µM) was 48.6% and 50.2% and 50.6%. For the same compound, the pIC50 (curve of compound) was 6.02 and < 6.00.
`COc1cc(C2c3cc4c(cc3C(OC3OC5COC(C)OC5C(O)C3O)C3COC(=O)C23)OCO4)cc(OC)c1O` (stereo not drawn) + COC1C(OC(N)=O)C(O)C(Oc2ccc3c(O)c(NC(=O)c4ccc(O)c(CC=C(C)C)c4)c(=O)oc3c2C)OC1(C)C was tested, and the pIC50 [1] was less than 5.00, the pIC50 [2] was less than 5.00 and the pIC50 [3] was less than 5.00. It also gave a pIC50 [4] of less than 5.00, a pIC50 [5] of less than 5.00 and a pIC50 [6] of less than 5.00. It also gave a viability, T/C [7] of 96.1%, a viability, T/C [8] of 90% and a viability, T/C [9] of 74.3%. For the same compound, the viability, T/C [10] was 61.8%, the viability, T/C (second compound 0.0316 µM, first compound 3.16 µM) was 59.5% and the viability, T/C (second compound 0.0316 µM, first compound 10 µM) was 51.7%. For the same compound, the viability, T/C [11] was 109%, the viability, T/C [12] was 89.6% and the viability, T/C [13] was 71.1%. For the same compound, the viability, T/C [14] was 69%, the viability, T/C (second compound 0.1 µM, first compound 3.16 µM) was 51.2% and the viability, T/C (second compound 0.1 µM, first compound 10 µM) was 59.3%. The viability, T/C [15] was 87%, the viability, T/C [16] was 90.2% and the viability, T/C [17] was 78.9%. It also gave a viability, T/C [18] of 72.2%, a viability, T/C (second compound 0.316 µM, first compound 3.16 µM) of 70.8% and a viability, T/C (second compound 0.316 µM, first compound 10 µM) of 51%. For the same compound, the viability, T/C [19] was 97%, the viability, T/C [20] was 89.5% and the viability, T/C [21] was 72.9%. It also gave a viability, T/C [22] of 57.9%, a viability, T/C (second compound 1 µM, first compound 3.16 µM) of 57.3% and a viability, T/C (second compound 1 µM, first compound 10 µM) of 48.9%. The viability, T/C [23] was 106%, the viability, T/C [24] was 92.1% and the viability, T/C [25] was 72.7%. It also gave a viability, T/C [26] of 65.7%, a viability, T/C (second compound 3.16 µM, first compound 3.16 µM) of 57.4% and a viability, T/C (second compound 3.16 µM, first compound 10 µM) of 52.7%. For the same compound, the viability, T/C [27] was 97.2%, the viability, T/C [28] was 95.4% and the viability, T/C [29] was 73%. For the same compound, the viability, T/C [30] was 59.8%, the viability, T/C (second compound 10 µM, first compound 3.16 µM) was 55.6% and the viability, T/C (second compound 10 µM, first compound 10 µM) was 53%.
